# US20030013660A1, “Dioxolane analogs for improved inter-cellular delivery” (Shire BioChem Inc., priority 2000, published 2003)
# Where two headings read alike, the source gives them in different places.
# How the values were obtained:
# Assay in all cases: 3H-TdR (3H-thymidine) incorporation assay at 72 hr
# H-460 = assay type: cell-based, Human; conditions: 3H-TdR incorporation at 72 hr
# MCF-7 = assay type: cell-based, Human; conditions: 3H-TdR incorporation at 72 hr
# SF-268 = assay type: cell-based, Human; conditions: 3H-TdR incorporation at 72 hr
# CCRF-CEM = assay type: cell-based; conditions: 3H-TdR incorporation at 72 hr
# Description: (§1) Table of IC50 Values (μM) for Controls
# (§2) Exposition of 24 hr to drug, wash, incubated for another 48 hr (total of 72 hr assay)
# (§3) (3H-Thymidine Incorporation Assay)
# CEM/dCK- = assay type: cell-based; conditions: for IC50: Homo sapiens, CCRF-CEM, read-out: IC50 CEM/dCK- 24 h, 24 h drug exposure, wash, another 48 hr, deoxycytidine kinase-deficient CCRF-CEM; for Factor* (Resistance Factor = Ratio of dCK- on Wild-type CCRF-CEM): ratio of IC50 CEM/dCK- to CCRF-CEM, 24 h
# Description: as §1, §2, §3
# [1] = Homo sapiens, NCI-H460, read-out: IC50 H-460 24 h, 24 h drug exposure, wash, another 48 hr
# [2] = Homo sapiens, MCF7, read-out: IC50 MCF-7 24 h, 24 h drug exposure, wash, another 48 hr
# [3] = Homo sapiens, SF-268, read-out: IC50 SF-268 24 h, 24 h drug exposure, wash, another 48 hr
# [4] = Homo sapiens, CCRF-CEM, read-out: IC50 CCRF-CEM 24 h, 24 h drug exposure, wash, another 48 hr
IC50 (H-460; [1]) [nM],IC50 (MCF-7; [2]) [nM],IC50 (SF-268; [3]) [nM],IC50 (CCRF-CEM; [4]) [nM],IC50 (CEM/dCK-) [nM],"IC50 (H-460; read-out: IC50 H-460 24 h, 24 h drug exposure, wash, another 48 hr) [nM]","IC50 (MCF-7; read-out: IC50 MCF-7 24 h, 24 h drug exposure, wash, another 48 hr) [nM]","IC50 (SF-268; read-out: IC50 SF-268 24 h, 24 h drug exposure, wash, another 48 hr) [nM]","IC50 (CCRF-CEM; read-out: IC50 CCRF-CEM 24 h, 24 h drug exposure, wash, another 48 hr) [nM]",SMILES,Factor* (Resistance Factor = Ratio of dCK- on Wild-type CCRF-CEM) (CEM/dCK-)
12000,11000,3000,7000,20000,,,,,"COc1ccc(C(OC[C@H]2OC[C@@H](n3ccc(N)nc3=O)O2)(c2ccccc2)c2ccccc2)cc1 [Compound 134, 4-AMINO-1-{2-[(4- METHOXY-PHENYL)- DIPHENYL- METHOXYMETHYL]- [1,3]DIOXOLAN-4-YL}-1H- PYRIMIDIN-2-ONE]",3
9000,12000,3000,4000,> 100000,,,,,"O=c1nc(NC2Sc3ccccc3S2)ccn1[C@@H]1CO[C@H](CO)O1 [Compound 136, 4-(BENZO[1,3]DITHIOL-2- YLAMINO)-1-(2- HYDROXYMETHYL- [1,3]DIOXOLAN-4-YL)- 1H!PYRIMIDIN-2-ONE]",>25
920,1500,2100,530,58000,,,,,"Nc1ccn([C@@H]2CO[C@H](COC3Sc4ccccc4S3)O2)c(=O)n1 [Compound 138, 4-AMINO-1-[2- (BENZO[1,3]DITHIOL-2- YLOXYMETHYL)- [1,3]DIOXOLAN-4-YL]-1H- PYRIMIDIN-2-ONE]",109
810,1400,1300,400,> 100000,510,1700,1700,420,"COC(OC)(OC[C@H]1OC[C@@H](n2ccc(N)nc2=O)O1)c1ccccc1 [Compound 139, 4-AMINO-1-[2- (DIMETHOXY-PHENYL- METHOXYMETHYL)- [1,3]DIOXOLAN-4-YL]-1H- PYRIMIDIN-2-ONE]",>250
10000,20000,3000,11000,> 100000,,,,,"CN(Cc1ccccc1)C(=O)OC[C@H]1OC[C@@H](n2ccc(N)nc2=O)O1 [Compound 140, BENZYL-METHYL-CARBAMIC ACID 4-(4-AMINO-2-OXO- 2H-PYRIMIDIN-1-YL)- [1,3]DIOXOLAN-2- YLMETHYL ESTER]",>9
34,66,40,19,69000,,,,,"CCCCC(OC)(OC)OC[C@H]1OC[C@@H](n2ccc(N)nc2=O)O1 [Compound 141, 4-AMINO-1-[2-(1,1- DIMETHOXY- PENTYLOXYMETHYL)- [1,3]DIOXOLAN-4-YL]-1H- PYRIMIDIN-2-ONE]","3,632"
12,3.7,140,3.9,32000,,,,,"CN(C)/C=N/c1ccn([C@@H]2CO[C@H](COC(=O)Cc3ccc(N(C)C)cc3)O2)c(=O)n1 [Compound 143, (2S,4S)-2-(4″-N,N- DIMETHYLAMINOPHENYLACET OXY)METHYL-4-(4′-N,N- DIMETHYLAMINOMETHYLENE- CYTOSIN-1′-YL)-1,3- DIOXOLANE]","8,205"
3000,5200,1900,710,78000,,,,,"O=c1nc(NC2(c3ccccc3)c3ccccc3Oc3ccccc32)ccn1[C@@H]1CO[C@H](COC2(c3ccccc3)c3ccccc3Oc3ccccc32)O1 [Compound 144, 4-(9-PHENYL-9#H!- XANTHEN-9-YLAMINO)-1- [2-(9-PHENYL-9#H!- XANTHEN-9-YLOXYMETHYL)- [1,3]DIOXOLAN-4-YL]- 1#H!-PYRIMIDIN-2-ONE]",110
780,1200,28,130,50000,,,,,"Nc1ccn([C@@H]2CO[C@H](COC3(c4ccccc4)c4ccccc4Oc4ccccc43)O2)c(=O)n1 [Compound 146, 4-AMINO-1-[2-(9-PHENYL- 9#H!-XANTHEN-9- YLOXYMETHYL)- [1,3]DIOXOLAN-4-YL]- 1#H!-PYRIMIDIN-2-ONE]",385
60,110,17,25,> 100000,,,,,"Nc1ccn([C@@H]2CO[C@H](COC(=S)Oc3ccccc3)O2)c(=O)n1 [Compound 147, THIOCARBONIC ACID O- [4(S)-(4′-AMINO-2′-OXO- 2H-PYRIMIDIN-1′-YL)- [1,3]DIOXOLAN-2(S)- YLMETHYL] ESTER O- PHENYL ESTER]",>4000
960,1600,1300,130,90000,,,,,"CCCCCCOC(=O)Nc1ccn([C@@H]2CO[C@H](COC(=O)OCCCCCC)O2)c(=O)n1 [Compound 150, CARBONIC ACID HEXYL ESTER 4-(4- HEXYLOXYCARBONYLAMINO- 2-OXO-2H-PYRIMIDIN-1- YL)-[1,3]DIOXOLAN-2- YLMETHYL ESTER]",692
3500,3000,31000,790,> 100000,,,,,"O=c1nc(NCn2nnc3ccccc32)ccn1[C@@H]1CO[C@H](CO)O1 [Compound 152, 4-[(BENZOTRIAZOL-1- YLMETHYL)-AMINO]-1-(2- HYDROXYMETHYL- [1,3]DIOXOLAN-4-YL)-1H- PYRIMIDIN-2-ONE]",>127
46000,39000,59000,210,> 100000,,,,,"O=C(Nc1ccn([C@@H]2CO[C@H](COC(=O)c3ccccc3)O2)c(=O)n1)OCc1ccccc1 [Compound 153, BENZOIC ACID 4-(4- BENZYLOXYCARBONYLAMINO- 2-OXO-2H-PYRIMIDIN-1- YL)-[1,3]DIOXOLAN-2- YLMETHYL ESTER]",>476
760,1600,4400,140,> 100000,,,,,"CC(C)(OCc1ccccc1)OC[C@H]1OC[C@@H](n2ccc(N)nc2=O)O1 [Compound 154, 4-AMINO-1-[2-(1- BENZYLOXY-1-METHYL- ETHOXYMETHYL)- [1,3]DIOXOLAN-4-YL]-1H- PYRIMIDIN-2-ONE]",>714
120,68,930,7,81000,,,,,"CC(C)C(C(=O)OC[C@H]1OC[C@@H](n2ccc(N)nc2=O)O1)N(C)C (stereo partly drawn) [Compound 156, (2S,4S)-2-(N,N- DIMETHYL-L- VALINYLOXYMETHYL)-4- CYTOSIN-1′-YL-1,3- DIOXOLANE]","11,571"
24,550,2200,12,> 100000,,,,,"CC(C(=O)OC[C@H]1OC[C@@H](n2ccc(N)nc2=O)O1)C(c1ccccc1)c1ccccc1 (stereo partly drawn) [Compound 157, (2S,4S)-(3″-DIPHENYL- 2″- METHYLPROPIOXYMETHYL)- 4-CYTOSIN-1′-YL-1,3- DIOXOLANE]",>8333
920,360,1200,360,> 100000,,,,,"O=C(Nc1ccn([C@@H]2CO[C@H](CO)O2)c(=O)n1)OCCCCCl [Compound 160, [1-(2-HYDROXYMETHYL- [1,3]DIOXOLAN-4-YL)-2- OXO-1,2-DIHYDRO- PYRIMIDIN-4-YL]- CARBAMIC ACID 4-CHLORO- BUTYL ESTER]",>278

SMILES,IC50 (H-460; [1]) [nM],IC50 (MCF-7; [2]) [nM],IC50 (SF-268; [3]) [nM],IC50 (CCRF-CEM; [4]) [nM],IC50 (CEM/dCK-) [nM],"IC50 (H-460; read-out: IC50 H-460 24 h, 24 h drug exposure, wash, another 48 hr) [nM]","IC50 (MCF-7; read-out: IC50 MCF-7 24 h, 24 h drug exposure, wash, another 48 hr) [nM]","IC50 (SF-268; read-out: IC50 SF-268 24 h, 24 h drug exposure, wash, another 48 hr) [nM]","IC50 (CCRF-CEM; read-out: IC50 CCRF-CEM 24 h, 24 h drug exposure, wash, another 48 hr) [nM]",Factor* (Resistance Factor = Ratio of dCK- on Wild-type CCRF-CEM) (CEM/dCK-)
"CN(C)/C=N/c1ccn([C@@H]2CO[C@H](COC(=O)C(C)(C)c3ccccc3)O2)c(=O)n1 [Compound 142, (2S,4S)-2-(2″- DIMETHYLPHENYLACETOXY)M ETHYL-4-(4′-N,N- DIMETHYLAMINOMETHYLENE- CYTOSTN-1,-YL)-1,3- DIOXOLANE]",38,29,130,7.2,46000,,,,,"6,389"
"O=C(Nc1ccn([C@@H]2CO[C@H](COC(=O)OCCCCCl)O2)c(=O)n1)OCCCCCl [Compound 159, CARBONIC ACID 4-[4-(4- CHLORO- BUTOXYCARBONYLAMINO)-2- OXO-2H-PYRIMIDIN-1-YL]- [1,3]DIOXOLAN-2- YLMETHYL ESTER 4- CHLORO-BUTYL ESTER]",870,720,1600,380,> 100000,,,,,>263
